Measurements reported in PubChem BioAssay (NCI).
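Five compound concentrations were applied to cells in 96-well plates for 48 hours; endpoints were derived by simple linear interpolation of the resulting dose-response curve. Abbreviation: GI50, concentration required for 50% inhibition of growth. At the TGI there is no net growth.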

What was measured:
Test in all cases: inhibition of tumour cell growth, NCI panel, 48 h
K-562 leukemia = system: K-562 leukemia
MOLT-4 leukemia = system: MOLT-4 leukemia
OVCAR-5 ovarian = system: OVCAR-5 ovarian
HCT-15 colon = system: HCT-15 colon
NCI-H226 lung = system: NCI-H226 lung
MALME-3M melanoma = system: MALME-3M melanoma
UACC-62 melanoma = system: UACC-62 melanoma
ACHN renal = system: ACHN renal
PC-3 prostate = system: PC-3 prostate
OVCAR-4 ovarian = system: OVCAR-4 ovarian

Compound	TGI (K-562 leukemia)	TGI (MOLT-4 leukemia)	TGI (OVCAR-5 ovarian)	TGI (HCT-15 colon)	TGI (NCI-H226 lung)	TGI (MALME-3M melanoma)	TGI (UACC-62 melanoma)	GI50 (ACHN renal)	TGI (ACHN renal)	GI50 (K-562 leukemia)	GI50 (PC-3 prostate)	TGI (PC-3 prostate)	GI50 (OVCAR-5 ovarian)	GI50 (HCT-15 colon)	GI50 (UACC-62 melanoma)	GI50 (OVCAR-4 ovarian)	TGI (OVCAR-4 ovarian)	GI50 (MOLT-4 leukemia)	GI50 (MALME-3M melanoma)	GI50 (NCI-H226 lung)
O=c1nc2cc(-c3ccccc3)[nH]c2nn1-c1c(Cl)cc(Cl)cc1Cl	> 100 µM	64.5 µM	> 100 µM	> 100 µM	60.9 µM	65.7 µM	35.6 µM													
O=C(/C=C/c1cccc(Cl)c1)c1ccc(Cl)cc1Cl	> 50 µM		27.2 µM	> 50 µM			29 µM	15.3 µM	38.4 µM	2.86 µM	15.2 µM	> 50 µM	12.2 µM	12.2 µM	11.1 µM	13.4 µM	41.5 µM			
O=[N+]([O-])c1ccc(Cl)c(C2SCc3nc4ccccc4n32)c1 (stereo not drawn)	> 100 µM	> 100 µM	> 100 µM		69.1 µM	> 100 µM	> 100 µM		> 100 µM											
COc1ccc(O)c2c1C(=O)CCCC2=O	> 100 µM	> 100 µM	> 100 µM	> 100 µM		> 100 µM	> 100 µM		> 100 µM								> 100 µM			
Cc1nc(C(N)=S)sc1C(=O)/C=C/c1cccc(O)c1	78.3 µM	> 100 µM	> 100 µM	> 100 µM	> 100 µM	> 100 µM	> 100 µM		> 100 µM											
COc1ccc(NC(=O)C(=O)C2NC(=S)NC2=O)c(OC)c1 (stereo not drawn)	> 100 µM	> 100 µM		> 100 µM	> 100 µM	> 100 µM	> 100 µM		> 100 µM								> 100 µM			
Cn1ccnc1C(=O)/C=C/c1ccc(C(=O)Nc2nc3ccccc3[nH]2)cc1	> 25 µM	> 25 µM	> 25 µM	> 25 µM		> 25 µM	> 25 µM	11 µM	> 25 µM	0.829 µM	3.78 µM	> 25 µM	5.6 µM	0.864 µM	6.07 µM	1.12 µM	> 25 µM	7.26 µM	> 25 µM	
COc1cc2c(cc1C)n(O)c(C)c(C(=O)C/C(=N/NC(=O)C[N+](C)(C)C)C(=O)Nc1cccc(Cl)c1C)[n+]2=O	> 100 µM	> 100 µM	> 100 µM	> 100 µM	> 100 µM	> 100 µM	> 100 µM		> 100 µM								> 100 µM			
c1ccc(-c2nc(N3CCNCC3)c3nc(-c4ccccc4)oc3n2)cc1	4.22 µM		3.15 µM	3.18 µM		3.19 µM	3.23 µM	1.71 µM	3.09 µM	1.44 µM	1.66 µM	3.24 µM	1.7 µM	1.66 µM	1.78 µM	1.9 µM	3.63 µM		1.7 µM	
CCC1(CN(C)C)CC/C(=C\c2ccc3c(c2)OCO3)C1=O (stereo not drawn)	> 100 µM	> 100 µM	> 100 µM	> 100 µM	> 100 µM	> 100 µM	> 100 µM		> 100 µM								> 100 µM			
COC(=O)C1=C(C(=O)OC)C2(C(=O)OC)OC1(OC)C(C1(C(=O)OC)C(C(=O)OC)=C1C(=O)OC)=C2C(=O)OC (stereo not drawn)	> 100 µM	> 100 µM	> 100 µM	> 100 µM	> 100 µM	> 100 µM	> 100 µM		> 100 µM											
COc1cc(C2C(C(=O)Nc3ccccc3)=C(C)NC(C)=C2C(=O)Nc2ccccc2)ccc1O	> 100 µM	> 100 µM	> 100 µM	> 100 µM	> 100 µM	> 100 µM			> 100 µM								> 100 µM			
Cc1cc(C)nc(NS(=O)(=O)c2ccc(NC(=O)c3cccc4cc5ccccc5nc34)cc2)n1	> 100 µM	> 100 µM	> 100 µM	58.5 µM	46.5 µM	56.7 µM	79.3 µM		> 100 µM								> 100 µM			
Cc1ccc(Nc2ccc(Nc3ccc(C)cc3)c3c2C(=O)c2c(O)ccc(O)c2C3=O)cc1	> 100 µM	> 100 µM	> 100 µM	> 100 µM		> 100 µM	> 100 µM		> 100 µM								> 100 µM			
Fc1ccccc1C1CC(C(c2ccccc2)c2ccccc2)=Nc2ccccc2S1 (stereo not drawn)	10.6 µM	11 µM	33.6 µM	30.8 µM	32.6 µM	29.5 µM	18.7 µM		43.6 µM								32.9 µM			
CC1=C2C(c3ccccc3)(c3ccccc3)C3C=CC2(C=N3)N(C(=O)NC2CCCCC2)C1=O (stereo not drawn)	34.6 µM	35.8 µM	31.5 µM	30.4 µM		31.6 µM	33.4 µM		33.8 µM								31.5 µM			
COc1ccc(/C=C\c2cc(OC)c(OC)c(OC)c2)c(NS(=O)(=O)c2ccc(C)cc2)c1O	> 100 µM	> 62.9 µM	> 100 µM	> 81.6 µM		> 100 µM	> 100 µM	0.0874 µM	> 59.9 µM	0.0409 µM	0.04 µM	> 100 µM	0.15 µM	0.0395 µM	0.0428 µM	0.233 µM	> 100 µM	0.0421 µM	16.8 µM	
Fc1ccc(-c2ncn(C3CCNCC3)c2-c2ccnc(Oc3cccc(F)c3)n2)cc1	16.5 µM	> 25 µM	> 25 µM	> 25 µM		16.8 µM	> 18.6 µM	8.58 µM	> 25 µM	6.7 µM	16.5 µM	> 25 µM	22.2 µM	> 18 µM	10.5 µM	16.8 µM	> 25 µM	12.7 µM	6.71 µM	
CCS/C(Nc1ccccc1)=C(\C#N)C(=O)Nc1ccc(OC)cc1	> 100 µM	> 100 µM	> 100 µM	> 100 µM	50.7 µM	> 100 µM	> 100 µM	5.04 µM	> 100 µM	0.436 µM			5.52 µM	1.19 µM	2.58 µM	7.61 µM	> 100 µM	2.61 µM	47.3 µM	5.45 µM
